Measured values as given in patent publication US20230338338A1, “PHARMACEUTICAL COMPOSITIONS COMPRISING IONIC LIQUIDS” (The Provost, Fellows, Foundation Scholars, and the other …, priority 2021, published 2023).

Tests used:
Assay type in all cases: physicochemical
[1] = Thermodynamic stability and miscibility of the ionic liquid in dissolution media (stirred 24 hours at 37° C., then monitored for two years); settings: for miscibility with dissolution medium: 2 to 85% w/w; for thermodynamic stability (crystallisation or liquid-liquid phase separation): 2 to 85% w/w BMIm Ibu:dissolution medium, stirred 24 hours at 37° C., then ambient conditions over two years
Protocol: The thermodynamic stability of BMIm Ibu (ionic liquid) in deionised water (DIW) and simulated intestinal fluid (SIF; 0.05 M phosphate buffer, pH 6.8) was quantified as follows: Ratios of 2 to 85% w/w BMIm Ibu:dissolution medium were placed in small vials and allowed to stir for 24 hours at 37° C.

[2] = Dissolution study, USP Apparatus 2, simulated intestinal fluid (SIF); settings: 0.05M phosphate buffer (pH 6.8), 900 ml, 37° C., 50 rpm, equivalent of 200 mg ibuprofenate ion, after 10 minutes until the end of four hours
Protocol: (§1) Dissolution studies were performed using a USP Apparatus 2 with a Sotax AT7 dissolution bath (Carl Stuart Limited, Dublin, Ireland). The mass of powder corresponding to the equivalent of 200 mg of ibuprofenate ion (equivalent to one dose) was added to 900 ml of dissolution media equilibrated at 37° C. stirred at 50 rpm. Samples were taken and replaced with fresh media every 5 min for the first 30 min, then at 45 min, 60 min and then every 30 min for the remainder of the experiment. The first 2 ml of each 5 ml sample was filtered and discarded before the remaining sample was filtered through a 0.45 μm nylon filter into a HPLC vial. All experiments were carried out in triplicate. A sample of the powder was assayed by completely dissolving it in methanol (n=3) and finding the ionic liquid content by HPLC.
The dissolution of powders 1 and 5 to 8 in simulated intestinal fluid (SIF), 0.05M phosphate buffer (pH 6.8) over a period of four hours was studied.
The dissolution of powders 9 and 10 in simulated intestinal fluid (SIF), 0.05M phosphate buffer (pH 6.8) over a period of four hours was studied.

[3] = Dissolution study, USP Apparatus 2, deionised water; settings: 900 ml, 37° C., 50 rpm, equivalent of 200 mg ibuprofenate ion, after 10 minutes until the end of four hours
Protocol: as §1
The dissolution of powders 1 and 5 to 8 in deionised water over a period of four hours was studied.
The dissolution of powders 9 and 10 in deionised water over a period of four hours was studied.
An ibuprofen amorphous solid dispersion was also tested. The amorphous solid dispersion was prepared by spray drying a solution of ibuprofen and hydroxypropyl methylcellulose in methanol in the same way as Powders 1 to 8. The ibuprofen content of the amorphous solid dispersion was the same as Powder 1.

[4] = simulated intestinal fluid (SIF; 0.05 M phosphate buffer, pH 6.8)

SMILES | miscibility with dissolution medium ([1]; deionised water (DIW)) | thermodynamic stability (crystallisation or liquid-liquid phase separation) ([1]; deionised water (DIW)) | miscibility with dissolution medium [1, 4] | thermodynamic stability (crystallisation or liquid-liquid phase separation) [1, 4] | level of dissolution [2] [%] | level of dissolution [3] [%]
CC(C)Cc1ccc(C(C)C(=O)[O-])cc1.CCCCn1cc[n+](C)c1 (stereo not drawn) [BMIm Ibu, 1-butyl-3-methyl imidazolium ibuprofenate] | fully miscible | No crystallisation or phase separation was observed | fully miscible | No crystallisation or phase separation was observed | – | –
CC(C)Cc1ccc(C(C)C(=O)O)cc1 (stereo not drawn) [crystalline ibuprofen, ibuprofen] | – | – | – | – | 100 | ≤ 30
